pIC50: −log10 of the molar value. Read-outs that look alike come from different tables or passages of the source.
Legend:
[1] = system: human multiple myeloma cell line, OPM-2; experiment: Cell viability assay (OPM-2 10 FBS), CellTiter-Glo; format: cell-based
How it was run: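 Cells were seeded at 3000 cells/well in RPMI 1640 with 10% FBS and exposed to serially diluted compounds for 16 h at 37 °C, 5% CO2.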

[2] = molecular target: recombinant human Mcl-1 (residues 171-327) / Bim interaction (Homo sapiens (Human), UniProt Q07820); experiment: biochemical; format: binding; conditions: read-out: Mcl-1 HTRF IC50
Sequence of recombinant human Mcl-1 (residues 171-327) / Bim interaction (Q07820 171-327): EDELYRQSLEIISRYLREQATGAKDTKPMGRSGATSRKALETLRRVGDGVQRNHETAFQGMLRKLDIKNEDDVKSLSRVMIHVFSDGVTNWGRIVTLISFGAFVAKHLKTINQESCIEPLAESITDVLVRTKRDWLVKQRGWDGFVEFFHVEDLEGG

[3] = Homo sapiens, OPM-2, 16 h, read-out: OPM-2 10% FBS IC50 IP, OPM-2 cells, 10% FBS, 16 h incubation
[4] = 0.1 nM Mcl-1(171-327), 0.05 nM biotin-Bim (51-76)
[5] = Homo sapiens, OPM-2, 16 h, read-out: OPM-2 10% FBS IC50 IP, OPM-2 cells, 10% FBS, 16 h, CellTiter-Glo
[6] = TR-FRET, Mcl-1(171-327) / biotin-Bim (51-76)
[7] = read-out: OPM-2 10% FBS IC50 IP, OPM-2 cells, 10% FBS, 16 h, CellTiter-Glo

Structure (SMILES)	pIC50 [1, 3]	pIC50 [2, 4]	pIC50 [1, 5]	pIC50 [2, 6]	further results
CO[C@]1(CN2CCN3CCCC[C@@H]3C2)/C=C/C[C@H](C)[C@@H](C)S(=O)(=O)NC(=O)c2ccc3c(n2)N(C[C@@H]2CC[C@H]21)C[C@@]1(CCCc2cc(Cl)ccc21)CO3 [Example 186, (1S,3′R,6′R,7′R,8′E,11′S,12′R)-6-chloro-7′-methoxy-11′,12′-dimethyl-7′-((9aR)-octahydro-2H-pyrido[1,2-a]pyrazin-2-ylmethyl)-3,4-dihydro-2H,15′H-spiro[naphthalene-1,22′-[20]oxa[13]thia[1,14,25]triazatetracyclo [14.7.2.0~3,6~.0~19,24~]pentacosa[8,16,18,24]tetraen]-15′-one 13′,13′-dioxide]	6.37	9.59	–	–	–
C[C@@H]1[C@@H](C)C[C@H]2C=CC[C@](O)(C2)[C@@H]2CC[C@H]2CN2C[C@@]3(CCCc4cc(Cl)ccc43)COc3ccc(cc32)C(=O)NS1(=O)=O [Example 100057, (1S,3′R,6′R,7′S,11′R,13′S,14′R)-6-chloro-7′-hydroxy-13′,14′-dimethyl-3,4-dihydro-2H,17′H-spiro[naphthalene-1,24′-[22]oxa[15]thia[1,16]diazapentacyclo [16.7.2.1~7,11~.0~3,6~.0~21,26~]octacosa [9,18,20,26]tetraen]-17′-one 15′,15′-dioxide]	–	–	5.59	9.25	–
CO[C@]1(CN2CCN3CCC(F)(F)C[C@H]3C2)/C=C/C[C@H](C)[C@@H](C)S(=O)(=O)NC(=O)c2ccc3c(c2)N(C[C@@H]2CC[C@H]21)C[C@@]1(CCCc2cc(Cl)ccc21)CO3 (single isomer, unassigned) [Example 299]	–	9.44	–	–	pIC50 ([1]; read-out: OPM-2 10% FBS IC50 IP, OPM-2 cells, 10% FBS, 16 h incubation): 6.34
COCCOC[C@]1(O)CCC[C@H](C)[C@@H](C)S(=O)(=O)NC(=O)c2ccc3c(c2)N(C[C@@H]2CC[C@H]21)C[C@@]1(CCCc2cc(Cl)ccc21)CO3 [Example 100192, (1S,3′R,6′R,7′S,11′S,12′R)-6-chloro-7′-hydroxy-7′-((2-methoxyethoxy)methyl)-11′,12′-dimethyl-3,4-dihydro-2H,15′H-spiro[naphthalene-1,22′-[20]oxa[13]thia[1,14]diazatetracyclo [14.7.2.0~3,6~.0~19,24~]pentacosa[16,18,24]trien]-15′-one 13′,13′-dioxide]	–	–	6.83	9.72	–
C[C@@H]1[C@@H](C)CCC[C@@](O)(C[C@H]2CCCN(C)C2)[C@@H]2CC[C@H]2CN2C[C@@]3(CCCc4cc(Cl)ccc43)COc3ccc(cc32)C(=O)NS1(=O)=O (single isomer, unassigned) [Example 100398]	–	–	6.34	9.21	–
C[C@@H]1[C@@H](C)CCC[C@](C)(CN2CCOCC2)[C@@H]2CC[C@H]2CN2C[C@@]3(CCCc4cc(Cl)ccc43)COc3ccc(cc32)C(=O)NS1(=O)=O [Example 100302, (1S,3′R,6′R,7′S,11′S,12′R)-6-chloro-7′,11′,12′-trimethyl-7′-(4-morpholinylmethyl)-3,4-dihydro-2H,15′H-spiro[naphthalene-1,22′-[20]oxa[13]thia[1,14]diazatetracyclo [14.7.2.0~3,6~.0~19,24~]pentacosa[16,18,24]trien]-15′-one 13′,13′-dioxide]	–	–	5.31	8.42	–
CO[C@]1(CN2C[C@@H]3C[C@H]2CN3C(C)C)/C=C/C[C@H](C)[C@@H](C)S(=O)(=O)NC(=O)c2ccc3c(c2)N(C[C@@H]2CC[C@H]21)C[C@@]1(CCCc2cc(Cl)ccc21)CO3 [Example 315, (1S,3′R,6′R,7′R,8′E,11′S,12′R)-6-chloro-7′-methoxy-11′,12′-dimethyl-7′-(((1S,4S)-5-(1-methylethyl)-2,5-diazabicyclo[2.2.1]hept-2-yl)methyl)-3,4-dihydro-2H,15′H-spiro[naphthalene-1,22′-[20]oxa[13]thia[1,14]diazatetracyclo [14.7.2.0~3,6~.0~19,24~]pentacosa[8,16,18,24]tetraen]-15′-one 13′,13′-dioxide]	6.91	9.91	–	–	–
C[C@@H]1[C@@H](C)CCC[C@@](O)(CCN2CC(F)(F)C2)[C@@H]2CC[C@H]2CN2C[C@@]3(CCCc4cc(Cl)ccc43)COc3ccc(cc32)C(=O)NS1(=O)=O [Example 100093, (1S,3′R,6′R,7′R,11′S,12′R)-6-chloro-7′-(2-(3,3-difluoro-1-azetidinyl)ethyl)-7′-hydroxy-11′,12′-dimethyl-3,4-dihydro-2H,15′H-spiro[naphthalene-1,22′-[20]oxa[13]thia[1,14]diazatetracyclo [14.7.2.0~3,6~.0~19,24~]pentacosa[16,18,24]trien]-15′-one 13′,13′-dioxide]	–	–	–	9.54	pIC50 [1, 7]: 6.26
CO[C@@]1(CCCO)/C=C/C[C@H](C)[C@@H](C)S(=O)(=O)NC(=O)c2ccc3c(c2)N(C[C@@H]2CC[C@H]21)C[C@@]1(CCCc2cc(Cl)ccc21)CO3 [Example 100178, (1S,3′R,6′R,7′S,8′E,11′S,12′R)-6-chloro-7′-(3-hydroxypropyl)-7′-methoxy-11′,12′-dimethyl-3,4-dihydro-2H,15′H-spiro[naphthalene-1,22′-[20]oxa[13]thia[1,14]diazatetracyclo [14.7.2.0~3,6~.0~19,24~]pentacosa[8,16,18,24]tetraen]-15′-one 13′,13′-dioxide]	–	–	–	9.36	pIC50 [1, 7]: 6.63
CO[C@@]1(CCN2CC(C)(N(C)C)C2)/C=C/C[C@H](C)[C@@H](C)S(=O)(=O)NC(=O)c2ccc3c(c2)N(C[C@@H]2CC[C@H]21)C[C@@]1(CCCc2cc(Cl)ccc21)CO3 [Example 100431, (1S,3′R,6′R,7′S,8′E,11′S,12′R)-6-chloro-7′-(2-(3-(dimethylamino)-3-methyl-1-azetidinyl)ethyl)-7′-methoxy-11′,12′-dimethyl-3,4-dihydro-2H,15′H-spiro[naphthalene-1,22′-[20]oxa[13]thia[1,14]diazatetracyclo [14.7.2.0~3,6~.0~19,24~]pentacosa[8,16,18,24]tetraen]-15′-one 13′,13′-dioxide]	–	–	6.54	10.37	–
CO[C@@]1(CN2CCN3CCOC[C@@H]3C2)/C=C/C[C@H](C)[C@@H](CCN2CCOCC2)S(=O)(=O)NC(=O)c2ccc3c(c2)N(C[C@@H]2CC[C@H]21)C[C@@]1(CCCc2cc(Cl)ccc21)CO3 [Example 361, (1S,3′R,6′R,7′S,8′E,11′S,12′R)-6-chloro-7′-((9aS)-hexahydropyrazino[2,1-c][1,4]oxazin-8(1H)-ylmethyl)-7′-methoxy-11′-methyl-12′-(2-(4-morpholinyl)ethyl)-3,4-dihydro-2H,15′H-spiro[naphthalene-1,22′-[20]oxa[13]thia[1,14]diazatetracyclo [14.7.2.0~3,6~.0~19,24~]pentacosa[8,16,18,24]tetraen]-15′-one 13′,13′-dioxide]	7.55	10.00	–	–	–
COC(=O)N1CCN(C[C@]2(OC)/C=C/C[C@H](C)[C@@H](C)S(=O)(=O)NC(=O)c3ccc4c(c3)N(C[C@@H]3CC[C@H]32)C[C@@]2(CCCc3cc(Cl)ccc32)CO4)CC1 [Example 266, methyl 4-(((1S,3′R,6′R,7′S,8′E,11′S, 12′R)-6-chloro-7′-methoxy-11′,12′-dimethyl-13′,13′-dioxido-15′-oxo-3,4-dihydro-2H-spiro[naphthalene-1,22′-[20]oxa[13]thia[1,14]diazatetracyclo [14.7.2.0~3,6~.0~19,24~]pentacosa[8,16,18,24]tetraen]-7′-yl)methyl)-1-piperazinecarboxylate]	6.14	9.55	–	–	–
CO[C@@]1(CN2CCN(C3CCC3)CC2)/C=C/C[C@H](C)[C@@H](C)S(=O)(=O)NC(=O)c2ccc3c(c2)N(C[C@@H]2CC[C@H]21)C[C@@]1(CCCc2cc(Cl)ccc21)CO3 [Example 281, (1S,3′R,6′R,7′S,8′E,11′S,12′R)-6-chloro-7′-((4-cyclobutyl-1-piperazinyl)methyl)-7′-methoxy-11′,12′-dimethyl-3,4-dihydro-2H,15′H-spiro[naphthalene-1,22′-[20]oxa[13]thia[1,14]diazatetracyclo [14.7.2.0~3,6~.0~19,24~]pentacosa[8,16,18,24]tetraen]-15′-one 13′,13′-dioxide]	6.82	9.74	–	–	–
CO[C@]1(CN2CCN(C(C)C)[C@@H](C)C2)/C=C/C[C@H](C)[C@@H](C)S(=O)(=O)NC(=O)c2ccc3c(c2)N(C[C@@H]2CC[C@H]21)C[C@@]1(CCCc2cc(Cl)ccc21)CO3 [Example 337, (1S,3′R,6′R,7′R,8′E,11′S,12′R)-6-chloro-7′-methoxy-11′,12′-dimethyl-7′-(((3S)-3-methyl-4-(1-methylethyl)-1-piperazinyl)methyl)-3,4-dihydro-2H,15′H-spiro[naphthalene-1,22′-[20]oxa[13]thia[1′14]diazatetracyclo [14.7.2.0~3,6~.0~19,24~]pentacosa[8,16,18,24]tetraen]-15′-one 13′,13′-dioxide]	7.23	10.05	–	–	–
C[C@@H]1[C@@H](C)C/C=C/[C@](O)(c2ncccn2)[C@@H]2CC[C@H]2CN2C[C@@]3(CCCc4cc(Cl)ccc43)COc3ccc(cc32)C(=O)NS1(=O)=O (single isomer, unassigned) [Example 100274]	–	–	6.27	9.42	–
CO[C@]1(CN2CCN(C)CC2)/C=C/[C@H](C)[C@H](C)CS(=O)(=O)NC(=O)c2ccc3c(c2)N(C[C@@H]2CC[C@H]21)C[C@@]1(CCCc2cc(Cl)ccc21)CO3 [Example 160, (1S,3′R,6′R,7′R,8′E,10′S,11′S)-6-chloro-7′-methoxy-10′,11′-dimethyl-7′-((4-methyl-1-piperazinyl)methyl)-3,4-dihydro-2H,15′H-spiro[naphthalene-1,22′-[20]oxa[13]thia[1,14]diazatetracyclo [14.7.2.0~3,6~.0~19,24~]pentacosa[8,16,18,24]tetraen]-15′-one 13′,13′-dioxide]	6.83	9.66	–	–	–

From US10821115B2, “Compounds that inhibit Mcl-1 protein” (priority 2017, dated 2020)
